Results on 19 molecules are retold here after US20250084095A1, “Aminopyrimidine Derivatives as Cyclin-Dependent Kinase Inhibitors” (Accutar Biotechnology Inc., priority 2023, published 2025).

As usually defined, the GI50 is the concentration at which growth is held to half of that of the control.

One assay deals with 22RV1 cells. In words: Cell growth inhibition of 22RV1 cells (CellTiter-Glo). It is filed as cell-based. Conditions: for GI50: Homo sapiens, 22Rv1, 120 h, 5 days, CellTiter-Glo. In short, it runs like this:
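22RV1 cells were plated in RPMI1640 with FBS (20% in one version, 10% in the other) and dosed next day at various concentrations from DMSO stocks. After 5 days at 37 °C, viability was measured by CellTiter-Glo luminescence.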
A general note: Cellular ATP, detected with luciferase, serves as a proxy for viable cell number.

In assay [1] the test system is Phospho-Rb (Ser807/811) in MCF7 cells. In words: Phospho-Rb expression inhibition in MCF7 cells quantified by in cell Western. Format: cell-based, human. Particulars: for IC50: Homo sapiens, MCF7, 24 h, in cell Western. The essentials:
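MCF7 cells were seeded at 20,000/well, grown overnight, then treated 24 h at 37 °C with compound dilutions (0.1% DMSO from 1000× stocks). Fixed cells were co-stained for phospho-Rb Ser807/811 and total Rb. Near-infrared dual-channel in-cell Western imaging was the read-out.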

[2] abbreviates: read-out: 22RV1 Cell Growh GI50.
Setting [3] is: 24 hours, read-out: MCF7 pRb IC50.

Read-outs that look alike come from different tables or passages of the source.

For the molecule `CC(C)n1c(C(C)(C)O)nc2c(F)cc(-c3nc(N[C@@H]4C[C@H]5CO[C@H](O5)[C@H]4O)ncc3Cl)cc21` [Compound 1, (1S,3R,4S,5R)-3-((5-chloro-4-(4-fluoro-2-(2-hydroxypropan-2-yl)-1-isopropyl-1H-benzo[d]imidazol-6-yl)pyrimidin-2-yl)amino)-6,8-dioxabicyclo[3.2.1]octan-4-ol], the GI50 in the assay on 22RV1 cells (setting [2]) is at most 120 nM; in the assay with 22RV1 cells (read-out: 22RVI, GI50) it was 144 nM. Also, in the assay with 22RV1 cells (versus PF-07220060), the “Potency in 22RV1 cell growth inhibition compared with the reference compound” value is reported as “slightly higher potency”. Moreover, the IC50 in assay [1] (24 h incubation, read-out: MCF7, pRb (Ser807/811), IC50) is 40.4 nM; in assay [1] (setting [3]), 40 to 150 nM. The “Potency in p-Rb inhibition compared with the reference compound” value in assay [1] (versus PF-07220060) is reported as “higher potency”.

In the case of `Cc1nc2c(F)cc(-c3nc(N[C@@H]4C[C@H]5CO[C@H](O5)[C@H]4O)ncc3Cl)cc2n1C(C)C` [Compound 25, (1S,3R,4S,5R)-3-((5-chloro-4-(4-fluoro-1-isopropyl-2-methyl-1H-benzo[d]imidazol-6-yl)pyrimidin-2-yl)amino)-6,8-dioxabicyclo[3.2.1]octan-4-ol], the 50% growth inhibitory concentration (GI50) with 22RV1 cells (setting [2]) is 120 to 450 nM. For the same molecule, in assay [1] (setting [3]), the IC50 was 40 to 150 nM.

With `Cc1c(C)n(C(C)C)c2cc(-c3nc(N[C@@H]4C[C@H]5CO[C@H](O5)[C@H]4O)ncc3Cl)ccc2c1=O` [Compound 191, 7-(5-chloro-2-(((1S,3R,4S,5R)-4-hydroxy-6,8-dioxabicyclo[3.2.1]octan-3-yl)amino)pyrimidin-4-yl)-1-isopropyl-2,3-dimethylquinolin-4(1H)-one], the 50% growth inhibitory concentration (GI50) in the assay with 22RV1 cells (setting [2]) lay in the range of 450 to 3000 nM. Moreover, the IC50 in assay [1] (setting [3]) lay in the range of 40 to 150 nM.

As for `CNCc1c(C)c(=O)c2ccc(-c3nc(N[C@@H]4C[C@H]5CO[C@H](O5)[C@H]4O)ncc3F)cc2n1C(C)C` [Compound 194, 7-(5-fluoro-2-(((1S,3R,4S,5R)-4-hydroxy-6,8-dioxabicyclo[3.2.1]octan-3-yl)amino)pyrimidin-4-yl)-1-isopropyl-3-methyl-2-((methylamino)methyl)quinolin-4(1H)-one], the GI50 with 22RV1 cells (setting [2]) lay in the range of 120 to 450 nM. Further, the IC50 in assay [1] (setting [3]) was in the range of 40 to 150 nM.

Turning to `Cc1c(CN(C)C)n(C(C)C)c2cc(-c3nc(N[C@@H]4C[C@H]5CO[C@H](O5)[C@H]4O)ncc3F)ccc2c1=O` [Compound 195, 2-((dimethylamino)methyl)-7-(5-fluoro-2-(((1S,3R,4S,5R)-4-hydroxy-6,8-dioxabicyclo [3.2.1]octan-3-yl)amino)pyrimidin-4-yl)-1-isopropyl-3-methylquinolin-4(1H)-one], the GI50 in the assay with 22RV1 cells (setting [2]) is 120 to 450 nM. Moreover, the IC50 in assay [1] (setting [3]) lay within 40 to 150 nM.

In the case of `Cc1c(CN2CCC2)n(C(C)C)c2cc(-c3nc(N[C@@H]4C[C@H]5CO[C@H](O5)[C@H]4O)ncc3F)ccc2c1=O` [Compound 196, 2-(azetidin-1-ylmethyl)-7-(5-fluoro-2-(((1S,3R,4S,5R)-4-hydroxy-6,8-dioxabicyclo[3.2.1]octan-3-yl)amino)pyrimidin-4-yl)-1-isopropyl-3-methylquinolin-4(1H)-one], the GI50 in the assay on 22RV1 cells (setting [2]) was in the range of 120 to 450 nM. For the same molecule, in assay [1] (setting [3]), the IC50 fell in the range of 40 to 150 nM.

As for `Cc1c(CN2CC(F)C2)n(C(C)C)c2cc(-c3nc(N[C@@H]4C[C@H]5CO[C@H](O5)[C@H]4O)ncc3F)ccc2c1=O` [Compound 197, 7-(5-fluoro-2-(((1S,3R,4S,5R)-4-hydroxy-6,8-dioxabicyclo[3.2.1]octan-3-yl)amino)pyrimidin-4-yl)-2-((3-fluoroazetidin-1-yl)methyl)-1-isopropyl-3-methylquinolin-4(1H)-one], in the assay with 22RV1 cells (setting [2]), the 50% growth inhibitory concentration (GI50) lay within 120 to 450 nM. In assay [1] (setting [3]), the IC50 was 40 to 150 nM.

Regarding `Cc1c(CN2[C@@H](C)COC[C@@H]2C)n(C(C)C)c2cc(-c3nc(N[C@@H]4C[C@H]5CO[C@H](O5)[C@H]4O)ncc3F)ccc2c1=O` [Compound 199, 2-(((3S,5S)-3,5-dimethylmorpholino)methyl)-7-(5-fluoro-2-(((1S,3R,4S,5R)-4-hydroxy-6,8-dioxabicyclo[3.2.1]octan-3-yl)amino)pyrimidin-4-yl)-1-isopropyl-3-methylquinolin-4(1H)-one], in the assay with 22RV1 cells (setting [2]), the GI50 is at most 120 nM. Besides, the IC50 in assay [1] (setting [3]) was at most 40 nM.

As to `CC(C)n1c(CN2[C@@H](C)COC[C@@H]2C)c(F)c(=O)c2ccc(-c3nc(N[C@@H]4C[C@H]5CO[C@H](O5)[C@H]4O)ncc3Cl)cc21` [Compound 201, 7-(5-chloro-2-(((1S,3R,4S,5R)-4-hydroxy-6,8-dioxabicyclo[3.2.1]octan-3-yl)amino)pyrimidin-4-yl)-2-(((3S,5S)-3,5-dimethylmorpholino)methyl)-3-fluoro-1-isopropylquinolin-4(1H)-one], in the assay with 22RV1 cells (setting [2]), the GI50 was in the range of 120 to 450 nM. The IC50 in assay [1] (setting [3]) fell in the range of 40 to 150 nM.

For `CC(C)n1c(CN2CC[C@@H](F)C2)c(F)c(=O)c2ccc(-c3nc(N[C@@H]4C[C@H]5CO[C@H](O5)[C@H]4O)ncc3F)cc21` [Compound 202, 3-fluoro-7-(5-fluoro-2-(((1S,3R,4S,5R)-4-hydroxy-6,8-dioxabicyclo[3.2.1]octan-3-yl)amino)pyrimidin-4-yl)-2-(((R)-3-fluoropyrrolidin-1-yl)methyl)-1-isopropylquinolin-4(1H)-one], the GI50 in the assay with 22RV1 cells (setting [2]) is 450 to 3000 nM. Moreover, the IC50 in assay [1] (setting [3]) lay within 150 to 1000 nM.

On to `CC(C)n1c(CN2[C@@H](C)COC[C@@H]2C)c(C(F)F)c(=O)c2ccc(-c3nc(N[C@@H]4C[C@H]5CO[C@H](O5)[C@H]4O)ncc3Cl)cc21` [Compound 204, 7-(5-chloro-2-(((1S,3R,4S,5R)-4-hydroxy-6,8-dioxabicyclo[3.2.1]octan-3-yl)amino)pyrimidin-4-yl)-3-(difluoromethyl)-2-(((3S,5S)-3,5-dimethylmorpholino)methyl)-1-isopropylquinolin-4(1H)-one], for which, in the assay on 22RV1 cells (setting [2]), the GI50 fell in the range of 120 to 450 nM. The IC50 in assay [1] (setting [3]) fell in the range of 40 to 150 nM.

As for `CC(C)n1c(CN2[C@@H](C)COC[C@@H]2C)cc(=O)c2ccc(-c3nc(N[C@@H]4C[C@H]5CO[C@H](O5)[C@H]4O)ncc3Cl)cc21` [Compound 205, 7-(5-chloro-2-(((1S,3R,4S,5R)-4-hydroxy-6,8-dioxabicyclo[3.2.1]octan-3-yl)amino)pyrimidin-4-yl)-2-(((3S,5S)-3,5-dimethylmorpholino)methyl)-1-isopropylquinolin-4(1H)-one], the GI50 in the assay on 22RV1 cells (setting [2]) was 120 to 450 nM. Also, the IC50 in assay [1] (setting [3]) lay within 40 to 150 nM.

For the molecule `Cc1c(CN2[C@@H](C)COC[C@@H]2C)n(C(C)C)c2cc(-c3nc(N[C@@H]4C[C@H]5CO[C@H](O5)[C@H]4O)ncc3Cl)ccc2c1=O` [Compound 206, 7-(5-chloro-2-(((1S,3R,4S,5R)-4-hydroxy-6,8-dioxabicyclo[3.2.1]octan-3-yl)amino)pyrimidin-4-yl)-2-(((3S,5S)-3,5-dimethylmorpholino)methyl)-1-isopropyl-3-methylquinolin-4(1H)-one], the GI50 in the assay with 22RV1 cells (setting [2]) is at most 120 nM. Moreover, the IC50 in assay [1] (setting [3]) was at most 40 nM.

`CC(C)n1c([C@@H]2CC2(F)F)nc2c(F)cc(-c3nc(N[C@@H]4C[C@H]5CO[C@H](O5)[C@H]4O)ncc3Cl)cc21` [Compound 216, (1S,3R,4S,5R)-3-((5-chloro-4-(2-((S)-2,2-difluorocyclopropyl)-4-fluoro-1-isopropyl-1H-benzo[d]imidazol-6-yl)pyrimidin-2-yl)amino)-6,8-dioxabicyclo[3.2.1]octan-4-ol]: the GI50 with 22RV1 cells (setting [2]) was at most 120 nM. For the same molecule, the IC50 in assay [1] (setting [3]) was at most 40 nM.

In the case of `Cc1c(-c2nc(N[C@@H]3C[C@H]4CO[C@H](O4)[C@H]3O)ncc2Cl)sc2c(C(C)C)cn(C)c(=O)c12` [Compound 223, 2-(5-chloro-2-(((1S,3R,4S,5R)-4-hydroxy-6,8-dioxabicyclo[3.2.1]octan-3-yl)amino)pyrimidin-4-yl)-7-isopropyl-3,5-dimethylthieno[3,2-c]pyridin-4(5H)-one], the GI50 in the assay with 22RV1 cells (setting [2]) was at most 120 nM. In assay [1] (setting [3]), the IC50 was at most 40 nM.

On to `Cc1c(-c2nc(N[C@@H]3C[C@H]4CO[C@H](O4)[C@H]3O)ncc2C(F)F)sc2c(C(C)C)cn(C)c(=O)c12` [Compound 227, 2-(5-(difluoromethyl)-2-(((1S,3R,4S,5R)-4-hydroxy-6,8-dioxabicyclo[3.2.1]octan-3-yl)amino)pyrimidin-4-yl)-7-isopropyl-3,5-dimethylthieno[3,2-c]pyridin-4(5H)-one], for which the GI50 in the assay on 22RV1 cells (setting [2]) is at most 120 nM. Also, in assay [1] (setting [3]), the IC50 was at most 40 nM.

For the molecule `CCn1cc(C(C)C)c2sc(-c3nc(N[C@@H]4C[C@H]5CO[C@H](O5)[C@H]4O)ncc3Cl)c(C)c2c1=O` [Compound 230, 5-ethyl-2-(5-chloro-2-(((1S,3R,4S,5R)-4-hydroxy-6,8-dioxabicyclo[3.2.1]octan-3-yl)amino)pyrimidin-4-yl)-7-isopropyl-3-methylthieno[3,2-c]pyridin-4(5H)-one], the GI50 in the assay with 22RV1 cells (setting [2]) lay within 120 to 450 nM. Besides, the IC50 in assay [1] (setting [3]) was at most 40 nM.

For the molecule `CC(C)(O)c1cnc2c(F)cc(-c3nc(N[C@@H]4C[C@H]5CO[C@H](O5)[C@H]4O)ncc3Cl)cc2c1Cl` [Compound 252, (1S,3R,4S,5R)-3-((5-chloro-4-(4-chloro-8-fluoro-3-(2-hydroxypropan-2-yl)quinolin-6-yl)pyrimidin-2-yl)amino)-6,8-dioxabicyclo[3.2.1]octan-4-ol], the GI50 with 22RV1 cells (setting [2]) was at most 120 nM. In addition, the IC50 in assay [1] (setting [3]) is at most 40 nM.

`CC(C)(O)c1cnc2c(F)cc(-c3nc(N[C@@H]4C[C@H]5CO[C@H](O5)[C@H]4O)ncc3F)cc2c1Cl` [Compound 255, (1S,3R,4S,5R)-3-((4-(4-chloro-8-fluoro-3-(2-hydroxypropan-2-yl)quinolin-6-yl)-5-fluoropyrimidin-2-yl)amino)-6,8-dioxabicyclo[3.2.1]octan-4-ol]: the GI50 with 22RV1 cells (setting [2]) is at most 120 nM. The IC50 in assay [1] (setting [3]) was at most 40 nM.
